Measured values reported in patent US4479962A, “Indazoloxypropanolamine derivatives and use in combating, and for the prophylaxis of, cardiac and circulatory diseases” (Boehringer Mannheim GmbH, priority 1981, dated 1984).

System: left ventricle
Assay: Cardiotonic effect in wake dogs, left ventricular dp/dt, in relation to isoprenalin
Type: in vivo
Conditions: intravenous, wake mongrel dogs, average of two to four individual tests; for ED50: Canis lupus familiaris, increasing dosage in intervals of ten minutes, read-out: ED50 (dosage which achieves one-half of the maximum effect), dp/dt; for dp/dt (%) of 0.3/μg/kg Isoprenalin i.v. (maximum achievable effect in comparison to isoprenalin): relative to 0.3 μg/kg isoprenalin i.v.
Protocol: For the tests, mongrel dogs of both sexes were used. In a preparatory operation, catheters had been inserted under aseptic conditions into the Arteria and Vena femoralis and, through the myocardium, into the left ventricle. The tests were begun not less than ten days after this operation, when the animals were again in a clinically healthy state. Throughout the test, during which the animals were wake, the arterial blood pressure was determined by means of a catheter and an electromechanical transducer. In addition, the pressure in the left ventricle was continuously measured by means of a tip manometer which had been introduced into the ventrical catheter and advanced as far as the heart, and from that pressure the differentiation based on the time dp/dt max was determined. The heart rate (f cor) was computed by counting the heart beats at a fast chart speed at given times of measurement. At the beginning of the experiments the animals were injected intravenously with 0.3 μg/kg of isoprenalin and the effect on the rapidity of the pressure increase recorded. After dissipation of this injection the test compounds were injected intravenously in increasing dosage rates in intervals of ten minutes and again the effect of each dosage level determined. For the characterization of the effectiveness of the test compounds two criteria were calculated: 1. The termination of the achievable maximum effect in comparison to isoprenalin. The maximum achievable effect of the test compound was compared to that of isoprenalin. (The higher the value, the stronger the effect.) 2. From the logarithm of the injected dosages and the effect after injection, the dosage was determined which achieves one-half of the maximum effect (ED 50). […]

Compound	ED50 [µg/kg]	dp/dt (%) of 0.3/μg/kg Isoprenalin i.v. (maximum achievable effect in comparison to isoprenalin) [%]
Cc1cccc(C)c1NCCNCC(O)COc1cccc2[nH]ncc12 (centres unmarked) [1-(Indazol-4-yloxy)-3-[2-(2,6-dimethylphenylamino)ethylamino]-propan-2-ol]	2.2	87
Cc1cccc(C)c1NCCNCC(O)COc1cccc2[nH]nnc12.Cl.Cl (centres unmarked) [1-(Benztriazol-4-yloxy)-3-[2-(2,6-dimethylphenylamino)-ethylamino]-propan-2-ol dihydrochloride]	3.5	100
O=[N+]([O-])c1cccc(NCCNCC(O)COc2cccc3[nH]ncc23)c1 (centres unmarked) [1-(indazol-4-yloxy)-3-[2-(3-nitrophenylamino)-ethylamino]-propan-2-ol]	2	66
OC(CNCCNc1cccc2c1CCC2)COc1cccc2[nH]ncc12 (centres unmarked) [1-(indazol-4-yloxy)-3-[2-(indanyl-4-amino)-ethylamino]-propan-2-ol]	4.9	83
Cc1cccc(C)c1NCCCNCC(O)COc1cccc2[nH]ncc12 (centres unmarked) [1-(indazol-4-yloxy)-3-[3-2,6-dimethylphenylamino)-propylamino]-propan-2-ol]	4.2	110
Cc1cccc(C)c1NCCNCC(O)COc1cccc2c1CCN2C=O (centres unmarked) [1-(1-formylindolin-4-yloxy)-3-[2-(2,6-dimethylphenylamino)-ethylamino]-propan-2-ol]	4.2	87
Cc1cccc(C)c1NCCNCC(O)COc1cccc2[nH]ccc12.O=C(O)O (centres unmarked) [1-(Indol-4-yloxy)-3-[2-(2,6-dimethylphenylamino)-ethylamino]-propan-2-ol dihydrogen carbonate]	3.2	85
